Laboratory results published in patent publication US6861445B2, “3-Substituted-3-(substitutedsulfonyl or sulfanyl)pyrrolidine-2,5-diones useful for inhibition of farnesyl-protein transferase” (Wyeth Holdings Corporation, priority 2001, dated 2005).
pIC50: −log10 of the molar value.

Columns and labels:
FPTase (H-Ras substrate) = FPTase (H-Ras substrate) (Homo sapiens, UniProt P49354+P49356); test: in vitro FTase Inhibition Assay, H-Ras as substrate for farnesylation; assay type: biochemical; settings: H-Ras used as substrate for farnesylation
Experimental: (§1) The ability of the compounds of this invention to inhibit FPTase was evaluated in the standard pharmacological in vitro test procedures described below.
(§2) Enzyme test procedure: FPTase inhibition in vitro assay was performed according to James, G. L., Brown, M. S., and Goldstein, J. L., Methods in Enzymology, 1995, 255, 38-46; and Garcia, M. A., et al., J. Biol. Chem., 1993, 268, 18415-18420.
(§3) • Materials—Purified FPTase (Moomaw, J. F. and Casey, P. J., J. Biol. Chem., 1992, 267, 17438-17443), purified His6-Ras, inhibitor compounds at 10 mg/ml or 10 mM in 100% DMSO, ^3H-FPP (50,000 dpm/pmol) Amersham, TCA/SDS (6%/2%), TCA (6%), Glass fiber filters (0.22-0.45 m), vacuum manifold or 96 well filtration plates. • Methods—1. Dilute FPTase inhibitors from stock solutions to 2.5× in 2.5% DMSO, 10 mM DTT, 0.5% octyl-B-glucoside. 2. Solution #1 is added to FPTase reaction in a volume of […]. 3. Standard reaction mix, […], contains 50 mM Tris (7.5),[…], 3 mM MgCl2, 20 mM KCl, 5 mM DTT, 0.2% octyl-B-glucoside, 1% DMSO, […] His6-Ras, 10 ng FPTase, and various concentrations of FPTase inhibitors. 4. Incubate for 30-90 min at 25° C. 5. […] Add scintillant to filters, measure ^3H-FPP incorporation into Ras protein. • Analysis of Results—Percent inhibition by test compounds is determined by the following: […]. […]

FPTase (K-Ras substrate) = FPTase (K-Ras substrate) (Homo sapiens, UniProt P49354+P49356); test: in vitro FTase Inhibition Assay, K-Ras as substrate for farnesylation; assay type: biochemical; settings: K-Ras used as substrate for farnesylation
Experimental: as §1, §2, §3

pIC50 (FPTase (H-Ras substrate))	pIC50 (FPTase (K-Ras substrate))	melting point [°C]	SMILES
6.85	< 6.00	160 to 162	COc1ccc(S(=O)(=O)C2(CCCC#Cc3ccc(Cl)cc3)CC(=O)NC2=O)cc1 (stereo not shown) [3-[5-(4-Chlorophenyl)pent-4-ynyl]-3-(4-methoxybenzenesulfonyl)-pyrrolidine-2,5-dione]
5.19	–	–	Cc1ccc(S(=O)(=O)C2(CC#Cc3ccc(Cl)cc3)CC(=O)NC2=O)cc1 (stereo not shown) [3-[-3-(4-Chlorophenyl)prop-2-ynyl]-3-(toluene-4-sulfonyl)pyrrolidine-2,5-dione]
